What all share (assay): Determination of MIC values (BHI broth, 96 well microtiter plate)
What all share (format): cell-based

Experiment [1] relates to vancomycin-resistant Enterococcus spp. (VRE). As to conditions: BHI broth; for MIC: Enterococcus, VRE, read-out: MIC VREF. An outline of the steps: (§1)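 Broth microdilution in Brain-Heart Infusion with twofold dilution series from 25 µg/mL final and a no-compound control. Overnight incubation at 37° C in a CO2 atmosphere; visual growth endpoint gives the MIC.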
The test system of experiment [2] is methicillin-resistant Staphylococcus aureus (MRSA). As to conditions: BHI broth; for MIC: Staphylococcus aureus, MRSA, read-out: MIC MRSA. The method in brief: as §1
Another experiment concerns Streptococcus pneumoniae. The settings on record: BHI broth; for MIC: Streptococcus pneumoniae, read-out: MIC S. pneu. The method in brief:
as §1

[3] abbreviates: 16 h, 37° C., overnight (about 16 hours).
Setting [4] is: 37° C., overnight (about 16 hours).

The structures appear in SMILES notation. Where two headings read alike, the source gives them in different places.

For the compound `Clc1ccc2nc(-c3c[nH]c4ccc(OCc5ccccc5)cc34)ccc2c1` [Example 194], the MIC was over 25 µg/mL in experiment [1] (setting [3]), under 7 µg/mL in experiment [2] (setting [3]) and under 7 µg/mL in the experiment with Streptococcus pneumoniae (setting [4]).
For the compound `NCc1ccc(CNC(=O)c2cc(-c3c[nH]c4ccc(Cl)cc34)nc3cc(Br)ccc23)cc1` [Example 230], the MIC was under 7 µg/mL in experiment [1] (VREF, overnight 37° C.); under 7 µg/mL in experiment [2] (overnight 37° C.); under 7 µg/mL in the experiment with Streptococcus pneumoniae (S. pneu, overnight 37° C.).
`CN(C)CCN(C)C(=O)c1cc(-c2c[nH]c3ccc(Br)cc23)nc2cc(Cl)ccc12` [Example 505]: the MIC in experiment [1] (16 h, 37° C., about 16 hours) is under 7 µg/mL; in experiment [2] (16 h, 37° C., about 16 hours) it was under 7 µg/mL; in the experiment with Streptococcus pneumoniae (37° C., about 16 hours), under 7 µg/mL.
Take `Cn1cc(-c2ccc3cc(Cl)ccc3n2)c2c(F)cccc21` [Example 211]: the MIC in experiment [1] (VREF, overnight 37° C.) is over 25 µg/mL; in experiment [2] (overnight 37° C.), under 25 µg/mL; in the experiment with Streptococcus pneumoniae (S. pneu, overnight 37° C.), over 25 µg/mL.
`OCc1cc(-c2c[nH]c3ccc(Br)cc23)nc2ccc(Cl)cc12` [Example 491]: the “MIC VREF” value in experiment [1] (37° C., about 16 hours) was over 25 µg/mL. For the same compound, the “MIC MRSA” value in experiment [2] (37° C., about 16 hours) was under 7 µg/mL. For the same compound, the “MIC S. pneu” value in the experiment with Streptococcus pneumoniae (37° C., about 16 hours) is under 7 µg/mL.
For `Clc1ccc2c(Cl)cc(-c3c[nH]c4ccccc34)nc2c1` [Example 482], the MIC in experiment [1] (16 h, 37° C., about 16 hours) was under 7 µg/mL; in experiment [2] (16 h, 37° C., about 16 hours), under 7 µg/mL; in the experiment with Streptococcus pneumoniae (37° C., about 16 hours), under 7 µg/mL.
With `NCc1ccc(CNC(=O)c2cc(-c3c[nH]c4ccc(Br)cc34)nc3cc(C#CCN4CCSCC4)ccc23)cc1` [Example 270], the MIC is under 25 µg/mL in experiment [1] (VREF, overnight 37° C.); under 25 µg/mL in experiment [2] (overnight 37° C.); over 25 µg/mL in the experiment with Streptococcus pneumoniae (S. pneu, overnight 37° C.).
As to `NCc1ccc(CNC(=O)c2cc(-c3c[nH]c4ccc(Br)cc34)nc3cc(Cl)c(C#CCN4CCSCC4)cc23)cc1` [Example 272], the MIC in experiment [1] (VREF, overnight 37° C.) was under 7 µg/mL; in experiment [2] (overnight 37° C.), under 7 µg/mL; with Streptococcus pneumoniae (S. pneu, overnight 37° C.), under 7 µg/mL.
With `NCc1cccc(CNC(=O)c2cc(-c3c[nH]c4ccc(Br)cc34)nc3cc(Cl)cc(Cl)c23)c1` [Example 246], the MIC in experiment [1] (VREF, overnight 37° C.) was under 7 µg/mL; in experiment [2] (overnight 37° C.), under 7 µg/mL; in the experiment on Streptococcus pneumoniae (S. pneu, overnight 37° C.) it was under 7 µg/mL.
Take `COc1ccc2nc(-c3c[nH]c4ccccc34)ccc2c1` [Example 480]: the MIC in experiment [1] (16 h, 37° C., about 16 hours) was over 25 µg/mL; in experiment [2] (16 h, 37° C., about 16 hours), over 25 µg/mL; with Streptococcus pneumoniae (37° C., about 16 hours) it was over 25 µg/mL.
`NCc1ccc(CNC(=O)c2cc(-c3c[nH]c4ccc(Br)cc34)nc3cc(Cl)ccc23)cc1` [Example 142]: the MIC (in experiment [1] (setting [3]); in experiment [2] (setting [3]); in the experiment on Streptococcus pneumoniae (setting [4])) was under 7 µg/mL throughout.
On to `N#CCc1cc(-c2c[nH]c3ccc(Br)cc23)nc2cc(Cl)ccc12` [Example 522], for which the MIC was under 25 µg/mL in experiment [1] (16 h, 37° C., about 16 hours); under 7 µg/mL in experiment [2] (16 h, 37° C., about 16 hours); under 7 µg/mL with Streptococcus pneumoniae (37° C., about 16 hours).
Consider `CNCCN(C)C(=O)c1cc(-c2c[nH]c3ccc(Br)cc23)nc2ccc(I)cc12` [Example 502], for which the MIC is under 7 µg/mL in experiment [1] (16 h, 37° C., about 16 hours); under 7 µg/mL in experiment [2] (16 h, 37° C., about 16 hours); under 7 µg/mL with Streptococcus pneumoniae (37° C., about 16 hours).
For `NCc1ccc(CNC(=O)c2cc(-c3c[nH]c4ccc(Br)cc34)nc3c(C#CCN4CCCCC4)cccc23)cc1` [Example 263], the MIC in experiment [1] (VREF, overnight 37° C.) was under 25 µg/mL; in experiment [2] (overnight 37° C.) it was under 25 µg/mL; in the experiment with Streptococcus pneumoniae (S. pneu, overnight 37° C.) it was under 7 µg/mL.
As to `NCCNC(=O)c1cc(-c2c[nH]c3ccc(Br)cc23)nc2cc(Cl)c(C#CCN3CC=CCC3)cc12` [Example 529], the MIC is under 7 µg/mL in experiment [1] (16 h, 37° C., about 16 hours); under 7 µg/mL in experiment [2] (16 h, 37° C., about 16 hours); under 7 µg/mL in the experiment with Streptococcus pneumoniae (37° C., about 16 hours).
Consider `OCc1cc(-c2c[nH]c3ccc(Br)cc23)nc2cc(Cl)ccc12` [Example 456], for which the “MIC VREF” value in experiment [1] (37° C., about 16 hours) is under 7 µg/mL. In addition, the MIC in experiment [2] (16 h, 37° C., about 16 hours) is under 7 µg/mL; with Streptococcus pneumoniae (37° C., about 16 hours) it was under 7 µg/mL.
As for `NCC1CCCC(CNC(=O)c2cc(-c3c[nH]c4ccc(Br)cc34)nc3c(F)cccc23)C1` (stereo not drawn) [Example 259], the MIC was under 7 µg/mL in experiment [1] (VREF, overnight 37° C.); under 7 µg/mL in experiment [2] (overnight 37° C.); under 7 µg/mL with Streptococcus pneumoniae (S. pneu, overnight 37° C.).
In the case of `Cn1cc(-c2cc(C(=O)NCCN)c3cc(C#CCN4CCCCC4)ccc3n2)c2cc(Br)ccc21` [Example 377], the MIC in experiment [1] (VREF, overnight 37° C.) is under 7 µg/mL; in experiment [2] (overnight 37° C.), under 7 µg/mL; in the experiment with Streptococcus pneumoniae (S. pneu, overnight 37° C.) it was under 7 µg/mL.
`Clc1cc(-c2c[nH]c3cccc(Cl)c23)nc2ccccc12` [Example 341]: the MIC is under 7 µg/mL in experiment [1] (VREF, overnight 37° C.); under 7 µg/mL in experiment [2] (overnight 37° C.); under 7 µg/mL in the experiment with Streptococcus pneumoniae (S. pneu, overnight 37° C.).
